The values below are quoted from earlier work in PubChem BioAssay AID1259410 (Chemical Carcinogenesis Research Information System (CCRIS), 2018).

This series concerns rodent tumor promotion studies, tumor incidence. Put plainly: CCRIS tumor promotion studies. An excerpt: The CCRIS database contains chemical records with carcinogenicity, mutagenicity, tumor promotion, and tumor inhibition test results. It was developed by the National Cancer Institute (NCI). Data are derived from studies cited in primary journals, current awareness tools, NCI reports, and other sources. Test results have been reviewed by experts in carcinogenesis and mutagenesis.
CCRIS provides historical information from the years 1985 - 2011. It is no longer updated.
This is an archive assay for CCRIS tumor promotion studies.

The mark [1] stands for this setting: Carcinogen: 7,12-DIMETHYLBENZ(A)ANTHRACENE, Doses [Carcinogen]: TOP, Route [Carcinogen]: DERMAL, Route [Promoter]: DERMAL, Species: MOUSE, Strain/Sex: FEMALE.

Consider `CCCCCCCCCCC(C)C1(CCC(=O)OC2C(C)C3(O)C(C=C(CO)CC4(O)C(=O)C(C)=CC43)C3C(C)(C)C23OC(C)=O)OCC(C)(C)N1[O]` (stereo unspecified), for which the outcome (Carcinogen: 7,12-DIMETHYLBENZ[A]ANTHRACENE, 57-97-6, Doses [Carcinogen]: 100 NMOL ONCE, Doses [Promoter]: 0, 20 NMOL 2/WK FOR 24 WK BEGINNING 1 WK POST CARCINOGEN DOSE (STUDY DURATION: 25 WK), Route [Carcinogen]: DERMAL, Route [Promoter]: DERMAL, Species: MOUSE, Strain/Sex: NMRI/FEMALE) was “skin: tumor”. In the case of `Oc1ccc(I)cc1`, the outcome under setting [1] is on record as “integumentary system (skin)”. Consider `[Cl][Zn][Cl]`, for which, under “Carcinogen: URETHANE, 51-79-6, Doses [Carcinogen]: 1.5 MG/G ONCE, Doses [Promoter]: 0, 50, 200, 500 UG/ML IN DEIONIZED DRINKING WATER BEGINNING 3 WK PRIOR TO CARCINOGEN DOSE AND CONTINUING FOR 12 WK POST, Doses [Promoter]: 0, 50, 200, 500 UG/ML IN DEIONIZED DRINKING WATER BEGINNING 3 WK PRIOR TO CARCINOGEN DOSE AND CONTINUING FOR 12 WK POST, Route [Carcinogen]: INTRAPERITONEAL, Route [Promoter]: ORAL, Species: MOUSE, Strain/Sex: SWISS/FEMALE”, the outcome is recorded as “lung: adenoma”.

Take `C[C@H](CCC(=O)O)[C@H]1CC[C@H]2[C@@H]3[C@H](O)C[C@@H]4C[C@H](O)CC[C@]4(C)[C@H]3CC[C@]12C`: the outcome is “gallbladder: tumor” (Carcinogen: 3-METHYLCHOLANTHRENE, 56-49-5, Doses [Carcinogen]: 3 MG IN BEESWAX PELLET, Doses [Promoter]: 0, 3 MG IN BEESWAX PELLET (STUDY DURATION: 5 MO), Route [Carcinogen]: IMPLANT, Route [Promoter]: IMPLANT, Species: HAMSTER) and “colon” (Doses [Carcinogen]: IR, Route [Carcinogen]: RECTAL, Route [Promoter]: RECTAL, Species: RAT, Strain/Sex: FEMALE). Turning to `Cc1cc(=O)n(-c2ccccc2)n1C`, the outcome (Carcinogen: DIHYDROXY-DI-N-PROPYLNITROSAMINE, 53609-64-6, URACIL, 66-22-8, Carcinogen: DIHYDROXY-DI-N-PROPYLNITROSAMINE, 53609-64-6, URACIL, 66-22-8, Doses [Carcinogen]: 1% DHPN IN DRINKING WATER AND 3% URACIL IN DIET FOR 4 WK, Doses [Promoter]: 0, 1% IN DIET BEGINNING 1 WK POST CARCINOGEN TREATMENT AND CONTINUING FOR 35 WK (STUDY DURATION: 40 WK), Route [Carcinogen]: ORAL, ORAL, Route [Promoter]: ORAL, Species: RAT, Strain/Sex: F344/MALE) was “kidney: adenoma or adenocarcinoma”. Take `Oc1ccccc1`: the outcome (Carcinogen: 7,12-DIMETHYLBENZ(A)ANTHRACENE, Doses [Carcinogen]: 75 UG, SINGLE DOSE, Doses [Promoter]: 0, 2.5 MG 2/WK FOR 42 WK, Route [Carcinogen]: DERMAL, Route [Promoter]: DERMAL, Species: MOUSE, Strain/Sex: FEMALE) is recorded as “integumentary system (skin): carcinoma”. For `CCCCCCCCCCCCO`, the outcome under setting [1] is reported as “integumentary system (skin)”. With `Oc1cc(O)c2c(c1)O[C@H](c1ccc(O)c(O)c1)[C@@H](O)C2`, the outcome (Carcinogen: N-METHYL-N'-NITRO-N-NITROSOGUANIDINE, 70-25-7, Doses [Carcinogen]: 150 MG/KG BW ONCE, Doses [Promoter]: 0, 0.8% IN DIET FOR 51 D BEGINNING 1 WK POST CARCINOGEN DOSE (STUDY DURATION: 52 WK), Route [Carcinogen]: GAVAGE, Route [Promoter]: ORAL, Species: RAT, Strain/Sex: F344/MALE) is listed as “forestomach: carcinoma; glandular stomach: adenocarcinoma”.

For the compound `COc1ccc(N)cc1N`, for the setting “Carcinogen: N-BIS(2-HYDROXYPROPYL)NITROSAMINE, 53609-64-6, Doses [Carcinogen]: 210 MG/100 G, ONCE (STUDY DURATION: 20 WK), Doses [Promoter]: 0, 0.5% IN DIET FOR 19 WK (STUDY DURATION: 20 WK), Route [Carcinogen]: INTRAPERITONEAL, Route [Promoter]: ORAL, Species: RAT, Strain/Sex: WISTAR/MALE”, the outcome is “thyroid gland: carcinoma, adenoma”. With `CN=C(NC#N)NCCSCc1nc[nH]c1C`, for the setting “Carcinogen: 1,2-DIMETHYLHYDRAZINE, 540-73-8, Doses [Carcinogen]: 30 MG/KG BW 1/WK FOR 5 WK, Doses [Promoter]: 0, 500 MG/L IN DRINKING WATER BEGINNING 4 D POST LAST CARCINOGEN DOSE (STUDY DURATION: 6 MO), Route [Carcinogen]: GAVAGE, Route [Promoter]: ORAL, Species: RAT, Strain/Sex: SPRAGUE-DAWLEY/MALE”, the outcome was “intestine: tumor”. `O=c1c(O)c(-c2ccc(O)c(O)c2)oc2cc(O)cc(O)c12`: the outcome (Carcinogen: N-ETHYL-N'-NITRO-N-NITROSOGUANIDINE, 4245-77-6, Doses [Carcinogen]: 0.01% IN DRINKING WATER FOR 4 WK PRIOR TO PROMOTER DOSES, Doses [Promoter]: 2% IN DIET FOR 16 WK (STUDY DURATION: 20 WK), Route [Carcinogen]: ORAL, Route [Promoter]: ORAL, Species: MOUSE, Strain/Sex: C57BL6/MALE) was “duodenum: tumor”. Regarding `CCCCCCCCCCCC(=O)OC[C@@H](O)[C@H]1OC[C@H](O)[C@H]1O`, the outcome (Carcinogen: 7,12-DIMETHYLBENZ(A)ANTHRACENE, Doses [Carcinogen]: TOP, Route [Carcinogen]: DERMAL, Route [Promoter]: DERMAL, Species: MOUSE, Strain/Sex: MALE) is listed as “integumentary system (skin)”. Turning to `NC(=O)c1cccnc1`, the outcome (Carcinogen: DIETHYLNITROSAMINE, 55-18-5, Doses [Carcinogen]: 25 MG/KG ONCE PRECEDED 24 HR BY 70% PARTIAL HEPATECTOMY, Doses [Promoter]: 0, 6.7, 30 MILLIMOLAR IN DRINKING WATER BEGINNING 2 WK POST CARCINOGEN DOSE (STUDY DURATION: 20 MO), Doses [Promoter]: 0, 6.7, 30 MILLIMOLAR IN DRINKING WATER BEGINNING 2 WK POST CARCINOGEN DOSE (STUDY DURATION: 20 MO), Route [Carcinogen]: INTRAPERITONEAL, Route [Promoter]: ORAL, Species: RAT, Strain/Sex: F344/MALE) was “kidney: tumor”. With `O=S(=O)(O)NC1CCCCC1`, under “Carcinogen: METHYLNITROSOUREA, Doses [Carcinogen]: BLADDER IMP, Doses [Promoter]: IN DIET, Route [Carcinogen]: BLADDER IMPLANT, Route [Promoter]: ORAL, Species: RAT, Strain/Sex: WISTAR/FEMALE”, the outcome was “urinary bladder”. Take `[Na+]`: the outcome is “urinary bladder: papilloma” (Carcinogen: N-BUTYL-N-(4-HYDROXYBUTYL)NITROSAMINE, 3817-11-6, Doses [Carcinogen]: 0.05% IN DRINKING WATER FOR 4 WK, Doses [Promoter]: 0, 2.34% IN DIET BEGINNING POST LAST CARCINOGEN DOSE AND CONTINUING FOR 32 WK (STUDY DURATION: 37 WK), Route [Carcinogen]: ORAL, Route [Promoter]: ORAL, Species: RAT, Strain/Sex: WISTAR/MALE); “forestomach: squamous carcinoma” (Carcinogen: N-METHYL-N'-NITRO-N-NITROSOGUANIDINE, 70-25-7, Doses [Carcinogen]: 0.25 ML/10 G BW OF A 5 G/L DISTILLED WATER SOLUTION (7.5-8.8 MG/RAT) ONCE, Doses [Promoter]: 0, 10% IN DIET BEGINNING POST CARCINOGEN DOSE AND CONTINUING FOR STUDY DURATION (STUDY DURATION: 1 YR), Route [Carcinogen]: INTRAGASTRIC, Route [Promoter]: ORAL, Species: RAT, Strain/Sex: ACI/MALE); “glandular stomach: adenocarcinoma” (Carcinogen: N-METHYL-N'-NITRO-N-NITROSOGUANIDINE, 70-25-7, Doses [Carcinogen]: 25 UG/ML IN DRINKING WATER FOR 25 WK, Doses [Promoter]: 0, 10% IN DIET FOR 26 WK BEGINNING 1 WK POST CARCINOGEN TREATMENT (STUDY DURATION: 52 WK), Route [Carcinogen]: ORAL, Route [Promoter]: ORAL, Species: RAT, Strain/Sex: WISTAR/MALE); “glandular stomach: adenoma or adenocarcinoma” (Carcinogen: N-METHYL-N'-NITRO-N-NITROSOGUANIDINE, 70-25-7, Doses [Carcinogen]: 100 PPM IN DRINKING WATER FOR 8 WK, Doses [Promoter]: 0, 5, 10% IN DIET FOR 82 WK BEGINNING POST CARCINOGEN TREATMENT (STUDY DURATION: 90 WK), Doses [Promoter]: 0, 5, 10% IN DIET FOR 82 WK BEGINNING POST CARCINOGEN TREATMENT (STUDY DURATION: 90 WK), Route [Carcinogen]: ORAL, Route [Promoter]: ORAL, Species: RAT, Strain/Sex: WISTAR/MALE); “stomach: adenocarcinoma” (Carcinogen: N-METHYL-N'-NITRO-N-NITROSOGUANIDINE, 70-25-7, Doses [Carcinogen]: 100 PPM IN DRINKING WATER FOR 10 WK, Doses [Promoter]: 0, 2.5, 5% IN DIET FOR 62 WK BEGINNING POST CARCINOGEN TREATMENT (STUDY DURATION: 72 WK), Doses [Promoter]: 0, 2.5, 5% IN DIET FOR 62 WK BEGINNING POST CARCINOGEN TREATMENT (STUDY DURATION: 72 WK), Route [Carcinogen]: ORAL, Route [Promoter]: ORAL, Species: RAT, Strain/Sex: WISTAR/MALE); “urinary bladder: carcinoma, carcinoma and papilloma” (Carcinogen: N-[4-(5-NITRO-2-FURYL)-2-THIAZOLYL]FORMAMIDE, 24554-26-5, Doses [Carcinogen]: 0.2% IN DIET FOR 6 WK, Doses [Promoter]: 0, 1.34% IN PROLAB DIET FOR 72 WK BEGINNING POST CARCINOGEN TREATMENT (STUDY DURATION: 78 WK), Route [Carcinogen]: ORAL, Route [Promoter]: ORAL, Species: RAT, Strain/Sex: F344/MALE).
